Key:
[1] = human gut metagenome, 24 h, 2 µM
[2] = human gut metagenome, 24 h, 2 µM; remark: listed apart in the source
[3] = human gut metagenome, 24 h, 2 µM; remark: listed apart in the source
[4] = human gut metagenome, 24 h, 2 µM; remark: listed apart in the source
[5] = (§1) The drug is tested on WLS-220 corresponding to human gut metagenome with ENA study accession number: PRJEB37062 and ENA sample accession number: ERS12561769 for biotransformation under anaerobic condition. The drug concentrations were measured over 9 timepoints collected between 0 and 24 hours of incubation by liquid-chromatography-coupled mass spectrometry (LC–MS); settings: 2 µM
[6] = human gut metagenome, 24 h, 2 µM; remark: listed apart in the source
[7] = human gut metagenome, 24 h, 2 µM; remark: listed apart in the source
[8] = as §1, with “WLS-310” for “WLS-220”, “ERS12561785” for “ERS12561769”; settings: 2 µM
[9] = as §1, with “Z-018” for “WLS-220”, “pig” for “human”, “ERS12561817” for “ERS12561769”; settings: 2 µM
[10] = as §1, with “Z-016” for “WLS-220”, “mouse” for “human”, “ERS12561815” for “ERS12561769”; settings: 2 µM
[11] = human gut metagenome, 24 h, 2 µM; remark: listed apart in the source
[12] = as §1, with “Z-014” for “WLS-220”, “rat” for “human”, “ERS12561814” for “ERS12561769”; settings: 2 µM
[13] = as §1, with “Z-002” for “WLS-220”, “rabbit” for “human”, “ERS12561802” for “ERS12561769”; settings: 2 µM
[14] = as §1, with “Z-011” for “WLS-220”, “mouse” for “human”, “ERS12561811” for “ERS12561769”; settings: 2 µM
[15] = human gut metagenome, 24 h, 2 µM; remark: listed apart in the source
[16] = as §1, with “WLS-170” for “WLS-220”, “ERS12561762” for “ERS12561769”; settings: 2 µM
[17] = as §1, with “Z-019” for “WLS-220”, “rat” for “human”, “ERS12561818” for “ERS12561769”; settings: 2 µM
[18] = as §1, with “WLS-039” for “WLS-220”, “ERS12561746” for “ERS12561769”; settings: 2 µM
[19] = human gut metagenome, 24 h, 2 µM; remark: listed apart in the source
[20] = as §1, with “WLS-082” for “WLS-220”, “ERS12561751” for “ERS12561769”; settings: 2 µM
Note: call rule not given here.

SMILES | Bacterial Biotransformation [1] | Bacterial Biotransformation [2] | Bacterial Biotransformation [3] | Bacterial Biotransformation [4] | Bacterial Biotransformation [5] | Bacterial Biotransformation [6] | Bacterial Biotransformation [7] | Bacterial Biotransformation [8] | Bacterial Biotransformation [9] | Bacterial Biotransformation [10] | Bacterial Biotransformation [11] | Bacterial Biotransformation [12] | Bacterial Biotransformation [13] | Bacterial Biotransformation [14] | Bacterial Biotransformation [15] | Bacterial Biotransformation [16] | Bacterial Biotransformation [17] | Bacterial Biotransformation [18] | Bacterial Biotransformation [19] | Bacterial Biotransformation [20]
CC(O)(CS(=O)(=O)c1ccc(F)cc1)C(=O)Nc1ccc(C#N)c(C(F)(F)F)c1 (stereo not given) [BICALUTAMIDE] | Compound NOT metabolized | Compound NOT metabolized | Compound NOT metabolized | Compound NOT metabolized | Compound NOT metabolized | Compound NOT metabolized | Compound NOT metabolized | Compound NOT metabolized | Compound NOT metabolized | Compound NOT metabolized | Compound NOT metabolized | Compound NOT metabolized | Compound NOT metabolized | Compound NOT metabolized | Compound NOT metabolized | Compound NOT metabolized | Compound NOT metabolized | Compound NOT metabolized | Compound NOT metabolized | –
CCCC1O[C@@H]2C[C@H]3[C@@H]4CCC5=CC(=O)C=C[C@]5(C)[C@H]4[C@@H](O)C[C@]3(C)[C@]2(C(=O)CO)O1 (stereo not given in full) [BUDESONIDE] | Compound metabolized | Compound metabolized | Compound metabolized | Compound metabolized | Compound metabolized | Compound metabolized | Compound metabolized | Compound metabolized | Compound metabolized | – | Compound metabolized | Compound metabolized | Compound metabolized | Compound metabolized | Compound metabolized | Compound metabolized | Compound NOT metabolized | Compound metabolized | Compound metabolized | –
CCCCCCOC(=O)/N=C(/N)c1ccc(NCc2nc3cc(C(=O)N(CCC(=O)OCC)c4ccccn4)ccc3n2C)cc1.CS(=O)(=O)O [DABIGATRAN ETEXILATE MESYLATE] | – | – | – | Compound NOT metabolized | – | – | Compound NOT metabolized | – | Compound NOT metabolized | Compound NOT metabolized | – | Compound NOT metabolized | Compound NOT metabolized | Compound NOT metabolized | Compound NOT metabolized | – | Compound NOT metabolized | – | – | –
OCCN1CCN(CCCN2c3ccccc3Sc3ccc(C(F)(F)F)cc32)CC1 [FLUPHENAZINE] | Compound metabolized | Compound NOT metabolized | Compound metabolized | Compound metabolized | Compound metabolized | Compound NOT metabolized | Compound metabolized | Compound metabolized | Compound NOT metabolized | Compound NOT metabolized | Compound metabolized | Compound NOT metabolized | Compound metabolized | Compound metabolized | Compound metabolized | Compound metabolized | – | Compound metabolized | Compound metabolized | Compound metabolized

From ChEMBL document CHEMBL5724914, “Linking interpersonal differences in gut microbiota composition and drug biotransformation activity” (2024)
